Experimental findings from patent US7019000B1, “Method of treating a disease condition caused or exacerbated by an HPV” (Institute of Molecular & Cell Biology, priority 1998, dated 2006) are described below.

SMILES strings stand for the structures.

The subject of test [1] is SiHa, HeLa, 444 and HaCat cells. The test is described as follows: Microscopic observation of cell viability (FIG. 4). Type of test: cell-based, human. The following applies: E6-dependent cells (SiHa and HeLa) vs E6-independent cells (444 and HaCat). Here is the method:
FIG. 4 photographically depicts viability of SiHa, HeLa, 444 and HaCat cells when treated with C16 compound.
Cell viability and the cytotoxic specificity for a number of other compounds of Formula (I) and (II) were also determined.

For a further test, the system named is SiHa, Caski, HeLa. The test is described as follows: Cell viability (WST1 assay), cervical epithelial tumour cells. Type of test: cell-based, human. The following applies: 50 μM, treated 3 times in 3 days. From the text: (§1) All cell lines were obtained from the American Type Culture Collection (Manassas, Va.) unless otherwise noted. SiHa (human cervical epithelial tumor line, HPV16-positive), CaSki (human cervical epithelial tumor line, HPV16-positive), HaCat (immortalized human skin epithelial cell line, HPV-negative), HeLa (human cervical epithelial tumor line, HPV18-positive), 444 (hybrid of HeLa and fibroblast, HPV18-positive) obtained from Eric Stanbridge (Universitv of California, Irvine), MCF7 (human mammary epithelial tumor cell line, HPV-negative), HT3 (human cervical epithelial tumor cell line, HPV-negative) was obtained from the German Cancer Research Institute/DKFZ-Heidelberg, and HepG2, (human liver epithelial tumor cell line, HPV-negative), were grown in Dulbecco's modified Eagle medium (DMEM) supplemented with 10% fetal calf serum, 100 U penicillin and 1000 U streptomycin. Cells were allowed to attach to the surface of microwell dishes overnight and subsequently, incubated with medium containing the zinc ejecting compounds at the concentrations (10–100 μM). Viability of the cells was scored by measuring the absorption of the tetrazolium salt WST1 (Roche Molecular Biochemicals, Mannheim, Germany) in an Elisa-plate reader (Tecan, Salzburg, Austria) at a wavelength of 450 nm and a reference wavelength of 630 nm. […]
In general terms: Tetrazolium dyes change colour on reduction, which living cells bring about.

The target in test [2] is T1, binding of E6 with E6AP and E6BP (Human papillomavirus type 16, UniProt P03126).
T1 construct: The full length HPV16 E6 gene was amplified via polymerase chain reaction and cloned in the vector pGeX4T2; made in house; host or cells: E. coli strain AB1899
More on the design: species or system HPV-16. From the text:
BIACORE allows real time analysis of bimolecular interactions without the need for isotopic or enzymatic labelling. BIACORE technology is based on the optical surface plasmon resonance (SPR), a technique that allows for detecting small changes in the refractive index on the surface of a thin gold film coated with a dextran matrix. Typically, one of the binding partners (termed the ligand) is covalently linked to the dextran matrix, while the other partner (termed the analyte) is introduced in a flow passing over the surface. The change in refractive index resulting from the interaction of the molecules is expressed in resonance units (RU): a SPR response of 1000 RU corresponds to a change of the surface concentration of the analyte of 1 ng protein/mm^2. GST-E6AP and GST-E6BP were used as ligands and GSTE6 was used as the analyte. […] Further controls included using the dextran matrix alone or GST as the ligand.
Binding of GST-E6 to GST-E6BP, GST-E6AP and GST was monitored by surface plasmon resonance (SPR) on a BIACORE 2000 machine (Biacore AB, Uppsala, Sweden). […] Typically 6000–10000 RU of GST, E6BP and E6AP were immobilized on three difference flowcells. Aliquots of purified HPV-16 GST-E6 (7 μM in 10 mM GSH, 50 mM Tris/PBS buffer, pH 8.2) were incubated with either 400 μM compound, or 5 mM EDTA, or 0.6% (170 mM) H2O2 for 2 hrs at room temperature. Then 10 μl of sample was injected at 1 μl/min over the three immobilized ligands using the sequential flow mode. The interactions between GST-E6 and ligands were monitored by the change of resonance signal in arbitrary units (RU).

Test [3] relates to PARP cleavage in HaCat cells. The test is described as follows: Western blot detection of PARP cleavage, HaCat. Format: cell-based, human. The following applies: 100 μM, one day; HPV-negative HaCat cells (mutant p53). On the procedure: 10^6 cells were plated on 10 cm petri-dishes with 10 ml medium and after attachment overnight, treated with 100 μM C16 or 0.5% DMSO for one day. At the time of cell harvest most C16-treated cells were still attached to the plate. Cells were harvested using a rubber policeman and lysed in 10 mM Hepes buffer, pH 7.2, 150 mM NaCl, 0.2% Nonidet-P40 (NP40) and 1 mM PMSF, followed by centrifugation. 20 μg of protein was loaded onto a 12% SDS-polyacrylamide gel, transferred to a nitrocellulose membrane and the membrane blocked with 5% nonfat dry milk in 20 mM Tris-Cl, pH 7.6, 150 mM NaCl, 0.05% Tween-20 overnight at 4° C. The membrane was then probed with primary antibodies against p53 (Santa Cruz Biotechnology, Santa Cruz, Calif.), β-actin (Sigma, St. Louis, Mo.) or PARP (C210, Centre de Research du Chul, Quebec, Canada) and followed by incubation with horseradish peroxidase-conjugated secondary antibody (Pierce, Rockford, Ill.). Finally, the blot was treated with an enhanced chemiluminescent detection substrate (SuperSignal, Pierce) and autoradiographed.
Increases in P53 expression are known to be associated with programmed cell death (apoptosis) (29), therefore PARP cleavage, a hallmark of apoptosis was examined in C16 treated cells.
A general note: A western blot detects proteins with antibodies after separation by electrophoresis.

The test system of test [4] is HPV containing cell lines as HeLa, SiHa and Caski, compared to HPV-negative cell lines MCF7, HEPG2, (HaCat, HT3, 444). The test is described as follows: Cell viability (WST1 assay), panel of HPV-positive and HPV-negative cell lines. Type of test: cell-based, human. Here is the method: Zinc finger proteins are required for maintenance of cell viability. Preferably, the compounds for use in the present invention are specific in their ability to affect the viability of MPV containing cells, with little or no cytotoxic effects on the cellular functioning of healthy non-MPV containing cells. The viability of MPV-infected cells (and non infected cells) in the presence of compounds of Formulae (I) or (II) can be measured by incubating with the tetrazolium salt WST1 (Roche Molecular Biochemicals, Manneheim Germany) and measuring the absorption readings thereof (WST1 assay).
All cell lines were obtained from the American Type Culture Collection (Manassas, Va.) unless otherwise noted. SiHa (human cervical epithelial tumor line, HPV16-positive), CaSki (human cervical epithelial tumor line, HPV16-positive), HaCat (immortalized human skin epithelial cell line, HPV-negative), HeLa (human cervical epithelial tumor line, HPV18-positive), 444 (hybrid of HeLa and fibroblast, HPV18-positive) obtained from Eric Stanbridge (Universitv of California, Irvine), MCF7 (human mammary epithelial tumor cell line, HPV-negative), HT3 (human cervical epithelial tumor cell line, HPV-negative) was obtained from the German Cancer Research Institute/DKFZ-Heidelberg, and HepG2, (human liver epithelial tumor cell line, HPV-negative), were grown in Dulbecco's modified Eagle medium (DMEM) supplemented with 10% fetal calf serum, 100 U penicillin and 1000 U streptomycin. Cells were allowed to attach to the surface of microwell dishes overnight and subsequently, incubated with medium containing the zinc ejecting compounds at the concentrations (10–100 μM). Viability of the cells was scored by measuring the absorption of the tetrazolium salt WST1 (Roche Molecular Biochemicals, Mannheim, Germany) in an Elisa-plate reader (Tecan, Salzburg, Austria) at a wavelength of 450 nm and a reference wavelength of 630 nm.
A total of 10 000 cells per well were plated on 24 well plates, after attachment overnight, they were treated 3 times in 3 days with C16 at 10 μM and 50 μM. The activity of C16 was also compared with that of C4 (azodicarbonamide) which causes ejection of zinc from HIV-1 NCp7 and is currently used in clinical trials for the treatment of AIDS.

Test [5] has as its system HT3, MCF7, HaCat and HeLa-fibroblast hybrid cell line 444. The test is described as follows: Cell viability (WST1 assay), HPV-negative cells and 444 hybrid. Type of test: cell-based, human. Conditions: treated 3 times in 3 days.
Excerpt: as §1

T1 sequence (P03126 whole entry): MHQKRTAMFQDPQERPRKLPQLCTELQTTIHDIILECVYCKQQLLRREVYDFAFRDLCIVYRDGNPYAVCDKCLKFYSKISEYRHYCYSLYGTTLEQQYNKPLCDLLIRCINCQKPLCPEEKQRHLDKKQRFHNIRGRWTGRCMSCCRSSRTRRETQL

As for `C1CN(SSN2CCOCC2)CCO1` [Compound C16], in test [1], the “microscopic observation of cells” value is given as “differential effect”. Also, the “inhibition of cell viability” value in the test with SiHa, Caski, HeLa is “substantial and specific inhibition of cell viability”. In test [2], the “inhibitory activity for E6 binding to both E6BP and E6AP (BIACORE)” value was “inhibitory activity for E6 binding to both E6BP and E6AP”. Besides, the “BIACORE (E6BP/E6AP)” value in test [2] (400 μM compound, 2 hrs at room temperature, GST-E6 7 μM in 10 mM GSH) is “+ (compound interferes in binding of E6 with E6AP and E6BP, binding is less than 50% of the corresponding E6-DMSO value.)”. The PARP cleavage entry in test [3] is “not”. The “effective concentration in cell viability assays” value in test [4] was 50 µM. In addition, the WST1 entry in test [4] (50 μM in cell culture) is “+”. Moreover, the WST1-spec entry in test [4] (50 μM, HPV containing vs HPV-negative cell lines) is on record as “+”. Further, the “effect on cell viability” value in test [5] is “little or no effect”.
